Laboratory results taken from US20230302160A1, “TUMOR CONTRAST COMPOUND, PREPARATION METHOD THEREFOR AND APPLICATION THEREOF IN TUMOR DIAGNOSTIC IMAGING” (Ningbo Haibo Biotechnology Co., Ltd, priority 2020, published 2023).
Read-outs that look alike come from different tables or passages of the source.

Assays:
[1] = Fluorescence quenching effect after mixing with surfactin in different ratios (fluorescence imager, ROI); format: physicochemical; details: compound 20 μM with surfactin
Protocol: The test solution was shaken for 5 min and added to a black 96-well plate with 50 ul of test solution per experimental well. Then a fluorescence imager was used for imaging. The photos were taken under Ex=745 nm, Em=820 nm. The ROI (Region of Interest) value for each well was quantitatively calculated.

[2] = system: diseased colonic tissue in a mouse primary bowel cancer tumor model (APCmin/+); test: Near-infrared imaging of diseased colon tissue immersed in compound/surfactin mixture, primary bowel cancer model; details: for recognition of tumor lesions: mixture with surfactin 1:5 (20 μM/100 μM), colon tissue immersed 12 min; for imaging ranking: mixture with surfactin 1:5, colon tissue immersed 12 min
Protocol: Establishment of the mouse primary bowel cancer tumor model of APCmin/+ mouse model: parent C57BL/6J-APC min/+ mice and C57BL/6J wt mice were caged and propagated. The genotype of the offspring was detected and the offspring C57BL/6J-APC min/+ mice (diseased mice) were screened. The offspring C57BL/6J-APC min/+ mice were killed at week 20. Mice were dissected and diseased colon tissue was taken. Colon was cut longitudinally for subsequent tests.
Compounds 1-8 were added to the aqueous solution of surfactin.
The diseased colon tissue of mice was immersed in the above fluid. A fluorescence imager was used for imaging after 12 min.

[3] = Fluorescence emission spectroscopy test after mixing with surfactin in different ratios; format: physicochemical; details: for fluorescence quenching in aqueous solution under the action of surfactin compared with methanol solution (emission spectra): compound 20 μM, Ex=730 nm, Em=760-960 nm, ratio 1:5 stated for Compounds 1-3; for fluorescence quenching effect when the amount of surfactin was reduced: compound:surfactin from 1:5 to 1:1, 1:0.2
Protocol: Surfactin in different concentrations was added to the aqueous solution of the corresponding compound (final concentration of 20 μM), and the molar ratio of the compound to be tested to surfactin was 1:5, 1:1, 1:0.2. A methanol solution of the corresponding compound (final concentration of 20 μM) was used as a positive control. The test solution was shaken for 5 minutes and its fluorescence emission spectra (Ex=730 nm, Em=760-960 nm) were detected using a fluorescence spectrophotometer.

[4] = system: tumor tissue in a mouse subcutaneous xenograft renal clear cell carcinoma tumor model (786o); test: Near-infrared imaging of excised tumor tissue immersed in compound/surfactin solution, renal clear cell carcinoma model; details: compound 20 μM, surfactin 100 μM (1:5), 786o xenograft tumor tissue immersed; for correlation between uptake by tumor tissues and immersion time: ROI
Protocol: (§1) Mice were dissected, and tumor tissues were taken.
Compounds 1-8 were added to the aqueous solution of surfactin. The final concentration of surfactin was 100 μM, and the final concentration of each compound was 20 μM (the molar ratio of the compound to surfactant was 1:5).
(§2) The tumor tissue was immersed in the above liquid.

[5] = system: tumor tissue in a mouse subcutaneous xenograft breast cancer tumor model; test: Near-infrared imaging of tumor tissue, breast cancer model; details: compound:surfactin 1:5, breast cancer xenograft tumor tissue; for correlation between uptake by tumor tissues and immersion time: ROI
Description: as §1, §2

[6] = system: organic anion transporting polypeptides (OATPs); details: compound:surfactin 1:5, 1 mM sodium bromosulfophthalein (50 equivalent), renal clear cell carcinoma xenograft tumor tissue
Protocol: Female nude mice around 5 weeks of age were ordered and subjected to subcutaneous renal clear cell cancer cell 786o inoculation after one week of barrier environmental adaptation at a specific position above the right lower limb (3×10^6/pce, suspended in 200 μl PBS solution). When the tumor volume reached 50-150 mm^3 (about 12-22 days), nude mice were randomly grouped with 3 mice in each experimental group. Mice were dissected, and tumor tissues were taken.
The tumor tissue was immersed in the above liquid. A fluorescence imager was used for imaging after a specified time.

[7] = molar ratio 1:1
Protocol: Different surfactants were added to the aqueous solution of Compound 4 (final concentration of […]), and the molar ratio of the compound to be tested to surfactin was 1:1. In addition, a methanol solution of the compound (final concentration of 20 μM) was used as a positive control. The test solution was shaken for 5 minutes and its fluorescence emission spectra (Ex=730 nm, Em=760-960 nm) were detected using a fluorescence spectrophotometer.

[8] = system: human renal cancer cell line A498; test: Fluorescence localization imaging in human renal cancer cell line A498; format: cell-based; details: same method as Example 2; for intracellular localization: A498 cells
Protocol: 786o cells (3×10^5/well) were seeded in a 6-well plate in advance and placed in a cell culture incubator for 48 h. After the culture medium was blotted, a culture medium comprising the corresponding compound (5 μM) and Mito-tracker (0.2 nM) was added to the experimental well, incubated for 30 min, cleaned three times with PBS solution, and imaged using a fluorescence microscope equipped with an infrared camera and a continuous LED light source. The near-infrared photos were taken under Ex=745 nm, Em=820 nm; the Mito-tracker photos were taken under Ex=488 nm and Em=520 nm.
The same method as Example 2 was employed except that the human renal cancer cell line A498 was used to detect the localization of Compounds 4, 5 within the cell.

Compound	fluorescence quenching effect, comparison between compounds [1]	recognition of tumor lesions [2]	fluorescence quenching in aqueous solution under the action of surfactin compared with methanol solution (emission spectra) [3]	fluorescence quenching effect when the amount of surfactin was reduced [3]	reason for near-infrared imaging of tumor tissues [4]	correlation between uptake by tumor tissues and immersion time [4]	uptake of the compound by tumor tissue (level) [5]	correlation between uptake by tumor tissues and immersion time [5]	effect of excessive sodium bromosulfophthalein on uptake by tumor tissues [6]	imaging ranking [2]	fluorescence signal in aqueous solution after mixing ([7]; mixed with anionic surfactants (surfactin, sodium dodecyl sulfonate, sodium dodecyl benzene sulfonate))	fluorescence signal in aqueous solution after mixing ([7]; mixed with cationic surfactants (dodecyltrimethylammonium chloride, tetrabutylammonium iodide))	fluorescence signal in aqueous solution after mixing ([7]; mixed with human serum albumin)	fluorescence signal in aqueous solution after mixing ([7]; mixed with nonionic surfactants (Kolliphor, P123))	intracellular localization [8]	uptake by tumor cells [8]	overall imaging of tumor tissue [4]	uptake of the compound by tumor tissue (level) [4]
CC1(C)C(/C=C/C2=C(Cl)C(=C/C=C3/N(CCCCCC(=O)O)c4ccccc4C3(C)C)/CCC2)=[N+](CCCCCC(=O)O)c2ccccc21 [Compound 1, reference compound]	the worst	had a recognition effect	obvious fluorescence quenching	significantly reduced	non-specific adsorption of the compounds by tissues	no obvious positive correlation												
CCN1/C(=C/C=C2\CCCC(/C=C/C3=[N+](CC)c4ccccc4C3(C)C)=C2Cl)C(C)(C)c2ccccc21 [Compound 2, reference compound]		had a recognition effect	obvious fluorescence quenching	significantly reduced	non-specific adsorption of the compounds by tissues	no obvious positive correlation												
CC[N+]1=C(/C=C/C2=C(Cl)C(=C/C=C3/N(CCCCCC(=O)O)c4ccccc4C3(C)C)/CCC2)C(C)(C)c2ccccc21 [Compound 3, reference compound]		had a recognition effect	obvious fluorescence quenching	significantly reduced	non-specific adsorption of the compounds by tissues	no obvious positive correlation												
CC[N+]1=C(/C=C/C2=C(Cl)C(=C/C=C3/N(CCCCCC(=O)Oc4ccccc4)c4ccccc4C3(C)C)/CCC2)C(C)(C)c2ccccc21 [Compound 4]	better than that of Compounds 1, 2 and 3	high specific recognition	obvious fluorescence quenching	not significantly reduced	targeted recognition of tumor tissues by the compounds	an obvious positive correlation	higher	an obvious positive correlation	effectively reduce the uptake	best imaged	substantially no fluorescence signal	still fluorescence signal	still fluorescence signal	still fluorescence signal	enriched in mitochondria	uptaken by tumor cells	optimal imaging of tumor tissue	high uptake
CC[N+]1=C(/C=C/C2=C(Cl)C(=C/C=C3/N(CCCCCC(=O)Oc4ccc(NC(=O)OC(C)(C)C)cc4)c4ccccc4C3(C)C)/CCC2)C(C)(C)c2ccccc21 [Compound 5]	better than that of Compounds 1, 2 and 3	high specific recognition	obvious fluorescence quenching	not significantly reduced	targeted recognition of tumor tissue by the compounds	a certain positive correlation									enriched in mitochondria	uptaken by tumor cells		low uptake
CC[N+]1=C(/C=C/C2=C(Cl)C(=C/C=C3/N(CCCCCC(=O)Nc4ccc(NC(=O)OC(C)(C)C)cc4)c4ccccc4C3(C)C)/CCC2)C(C)(C)c2ccccc21 [Compound 6]		high specific recognition	obvious fluorescence quenching	not significantly reduced	targeted recognition of tumor tissues by the compounds	an obvious positive correlation	higher	an obvious positive correlation		best imaged							optimal imaging of tumor tissue	high uptake
